Common to all, as to type: cell-based
One assay deals with Colon cancer cells line. The assay is described as follows: Cytotoxic activity, Sulfo-Rhodamine-B-stain (SRB) assay. The following applies: colon cancer cell line, 48 hrs. How it is done: The anticancer activity was made at the National Cancer Institute, Cancer Biology Department, Pharmacology Department, Cairo University. The absorbance or optical density (O.D.) of each well was measured spectrophotometrically at 564 (nm) with an “ELIZA” micro plate reader (Meter tech. Σ 960, “USA”). Evaluation of the cytotoxic activity of the prepared nano-complex was carried out against Colon cancer cells line. The evaluation process was carried out in vitro using the Sulfo-Rhodamine-B-stain (SRB). Cells were placed in 96-multiwell plate (10^4 cells/well) for 24 hrs before processing with the complexes to allow attachment of cell to the wall of the plate. Various concentrations of the compounds under test in DMSO (0, 1, 2.5, 5 and 10 µM) were added to the cell monolayer. Monolayer cells were incubated with the complexes for 48 hrs at 37° C. and in atmosphere of 5% CO2. After 48 hrs, cells were fixed, rinsed, and stained with Sulfo-Rhodamine-B-stain. Excess stain was washed with acetic acid and attached stain was treated with Tris EDTA buffer. Color intensity was measured in an ELISA reader. IC50 was evaluated and potency was calculated with regard to percentage of change of (vistabline standard). The relation between surviving fraction and compound concentration is plotted to get the survival curve of each tumor cell line after the specified compound. […]

The subject of assay [1] is Aspergillus Flavus. The assay is described as follows: Antifungal screening, well diffusion method. The conditions noted are these: 35° C. for 7 days. How it is done: Antifungal activities of the prepared nano-complex were studied against three fungal cultures using well diffusion method. The tested fungi were inoculated in Sabouraud dextrose broth medium (Hi-Media Mumbai) and incubated at 35° C. for 72 h and subsequently a suspension of about 1.60×10^4-6.00×10^4 c.f.u/ml was introduced agar plates and a sterile glass spreader was used for even distribution of the inoculum. The discs measuring 6 mm in diameter were prepared from Whatman No. 1 filter paper and sterilized by dry heat at 140° C. for 1 h. The sterile discs previously soaked in known concentration of the tested compounds were placed in Sabouraud dextrose Agar (SDA) plates. The plates were inverted and incubated at 35° C. for 7 days. The susceptibility was assessed on the basis of diameter of inhibition against albicans and non-albicans strain of fungi.

The subject of assay [2] is Aspergillus Flavus. The assay can be described thus: Minimum inhibitory concentration, serial broth dilution (fungus). How it is done: (§1) Minimum inhibitory concentrations (MICs) are defined as the lowest concentration of an antimicrobial that will inhibit the visible growth of a microorganism after overnight incubation. MICs are used by diagnostic laboratories mainly to confirm resistance of microorganism to antimicrobial agents and also to monitor the activity of new antimicrobial agents. MIC was determined in vitro in liquid medium by serial broth dilution method.
In general terms: In broth dilution the organism is exposed to a series of concentrations in liquid medium.

Assay [3] deals with Pseudomonas aeruginosa. The assay can be described thus: Antibacterial screening, agar well diffusion method. The following applies: 24 hours at 37° C. How it is done: The susceptibilities of such growth rate of microorganisms were measured in vitro by agar well diffusion method. The tested nano complex was dissolved in dimethylsulfoxide at different concentrations (10 and 20 mg/ml). 1 cm^3 of a 24 h broth culture containing 10^6 CFU/cm^3 was placed in sterile Petri-dishes. Molten nutrient agar (15 cm^3) maintained at 45° C. was then poured into the Petri-dishes and allowed to solidify. Then holes of 6 mm diameter were formed in the agar using a sterile cork borer and these holes were completely filled with the test solutions. The plates were incubated for 24 hours at 37° C. After the incubation period, the zone of inhibition of each well was determined by measuring the zones of growth inhibition (mm) against the test microorganisms with zone reader (Hi Antibiotic zone scale). […] The measurements were made in triplicate for each compound and their average values are reported.
Background: Agar diffusion results depend on both activity and mobility in agar.

Assay [4] concerns Pseudomonas aeruginosa. The assay is described as follows: Minimum inhibitory concentration, serial broth dilution (bacteria). As for the experimental part:
as §1

In brackets after ≈: the same amount, converted by molar mass. Like-named read-outs stand apart in the source and are kept apart here.

The molecule `CC[C@]1(O)C[C@@H]2CN(CCc3c([nH]c4ccccc34)[C@@](C(=O)OC)(c3cc4c(cc3OC)N(C)[C@H]3[C@@](O)(C(=O)OC)[C@H](OC(C)=O)[C@]5(CC)C=CCN6CC[C@]43[C@@H]65)C2)C1` [vinblastine] returned an IC50 in the assay with Colon cancer cells line of 5.7 µM.
In the assay on Aspergillus Flavus [1], `OC(Cn1cncn1)(Cn1cncn1)c1ccc(F)cc1F` [Flucazanol] had an inhibition zone of 27 mm. In the assay on Aspergillus Flavus [2], the MIC is 2.50 µg/mL (≈ 8.16 µM).
For “[4{3,4-bis-[(5-bromo-2-hydroxy-benzylidene)-amino]-phenyl}-phenyl-methanone] Ru(III) complex [prepared nano complex]”, the inhibition zone in the assay on Pseudomonas aeruginosa [3] came out at 42 mm; with Aspergillus Flavus [1], 30 mm. In addition, the MIC in the assay on Pseudomonas aeruginosa [4] worked out at 1.5 µg/mL; with Aspergillus Flavus [2], 2.00 µg/mL.
In the assay with Pseudomonas aeruginosa [3], `CC1COc2c(N3CCN(C)CC3)c(F)cc3c(=O)c(C(=O)O)cn1c23` (stereo not drawn) [Ofloxacin] registered an inhibition zone of 38 mm. Moreover, the MIC in the assay with Pseudomonas aeruginosa [4] (read-out: MIC) is 2.25 µg/mL (≈ 6.23 µM).

By IC50 is commonly meant the concentration needed to halve the response being measured. Lower therefore signals greater potency. The MIC is the lowest concentration that inhibits growth of the organism.

Values taken from patent US12180235B1, “Fabrication of novel nano-sized [4{3,4-bis-[(5-bromo-2-hydroxy-benzylidene)-amino]-phenyl }-phenyl-methanone] Ru(III) complex for pharmaceutical applications” (KING FAISAL UNIVERSITY, priority 2024, dated 2024).
